≈ marks a conversion by molar mass, not a printed value. Where two headings read alike, the source gives them in different places.
Columns and labels:
[1] = system: M. tuberculosis strain 103471; conditions: literature values; cited from earlier work
M. tuberculosis 27294 = experiment: In vitro agar dilution assay (MIC), reference strain; format: cell-based, Mycobacterium tuberculosis; conditions: for MIC: Mycobacterium tuberculosis, 27294, Table I, read-out: MIC (μg/ml) against M. tuberculosis-27294; for MIC (μg/ml) against M. tuberculosis-27294: Table I
M. fortuitum = experiment: In vitro agar dilution assay (MIC), M. fortuitum; format: cell-based, Mycobacterium fortuitum; conditions: Mycolicibacterium fortuitum; Table II; 8 strains; read-out: MIC (μg/ml) M. fortuitum (n = 8)
[2] = system: M. tuberculosis H37Rv ATCC 27294; experiment: In vitro growth inhibition assay, BACTEC 460 TB system; format: cell-based, Mycobacterium tuberculosis; parameters: key: +: If ΔGI of test vial is less than that of the control vial the culture was sensitive to the test compound; conditions: final concentration 6.25 μg/ml
[3] = system: M. tuberculosis clinical isolates, sensitive; experiment: microbe, parasite or virus in culture; format: cell-based, Mycobacterium tuberculosis; conditions: for MIC: Mycobacterium tuberculosis; for MIC (μg/ml) against Clinical isolates Sensitive: Table I, agar dilution
[4] = Acute toxicity study in mice; format: in vivo, Swiss albino mice; conditions: for LD0: single oral dose, mice
Description: Compound No. 3 of formula (I) was administered, as a single oral dose, in Swiss albino mice. Two dose levels of 500 and 2000 mg/kg were employed. […] Therefore LD0 was >2000 mg/kg by oral route in mice. […] Similarly in compound No. 12 of Formula I, LD0 was >500 mg/kg by oral route in mice.

M. kansasii = experiment: In vitro agar dilution assay (MIC), M. kansasii; format: cell-based; conditions: Mycobacterium kansasii; Table II; 2 strains; read-out: MIC (μg/ml) M. kansasii (n = 2)
[5] = system: M. tuberculosis H37Rv ATCC 27294; experiment: Murine model of pulmonary tuberculosis, treated 01 day post-infection; conditions: for Mean Log10 No. of CFU Lung / Mean Log10 No. of CFU Spleen: 5 day/week for 4 week; for Mean Log10 no. of reduction Lung / Mean Log10 no. of reduction Spleen / Mean Log10 No. of reduction Lung / Mean Log10 No. of reduction Spleen: difference from early controls
[6] = system: M. avium-intracellulare complex; experiment: In vitro agar dilution assay (MIC), M. avium-intracellulare complex; format: cell-based; conditions: Mycobacterium avium-intracellulare; Table II; 13 strains; read-out: MIC (μg/ml) M. avium-intracellulare complex (n = 13)
[7] = system: M. tuberculosis H37Rv ATCC 27294; experiment: Murine model of pulmonary tuberculosis, treated 14 days post-infection; conditions: Table IV; for Mean Log10 No. of CFU Lung / Mean Log10 No. of CFU Spleen: 5 day/week for 4 week, treated 14 days post-infection; for Mean Log10 no. of reduction Lung / Mean Log10 no. of reduction Spleen: difference from early controls
[8] = read-out: MIC (μg/ml) M. tuberculosis Sensitive (n = 17)
[9] = read-out: MIC (μg/ml) against Clinical isolates Sensitive
[10] = Table III, 12.5 mg/kg gavage, treatment from 1 day after infection
[11] = Table III, 25 mg/kg gavage, treatment from 1 day after infection
[12] = Table III, 50 mg/kg gavage, treatment from 1 day after infection
[13] = Table VI, 12.5 mg/kg, treated 01 day post-infection
[14] = Table VI, 25 mg/kg, treated 01 day post-infection
[15] = Table VI, 50 mg/kg, treated 01 day post-infection

SMILES: Cc1cc(CN2CCN(c3ccccn3)CC2)c(-c2ccccc2)n1-c1ccccn1
- melting point: 135 to 137 °C

SMILES: Cc1c(CN2CCN(C)CC2)cc(-c2ccc(Cl)cc2)n1-c1ccc(Cl)cc1 [BM 212]
- MIC value (μg/ml) against the M. tuberculosis strain 103471 [1]: 0.70 µg/mL (≈ 1.69 µM)

SMILES: Cc1c(CN2CCN(c3cccc(C(F)(F)F)c3)CC2)cc(-c2ccc(Cl)cc2)n1-c1ccc(Cl)cc1 [Compound No. 3, 1-{[1,5-bis(4-chlorophenyl)-2-methylpyrrol-3-yl]methyl}-4-(3-trifluoromethylphenyl)piperazine]
- MIC (M. tuberculosis 27294): 0.125 µg/mL (≈ 0.23 µM)
- MIC (M. fortuitum): 4 to 8 µg/mL (≈ 7.35 to 14.7 µM)
- Growth inhibition of M. tuberculosis 27294 [2]: +
- MIC [3, 8]: 0.125 to 0.25 µg/mL (≈ 0.23 to 0.459 µM)
- MIC [3, 9]: 0.125 to 0.25 µg/mL (≈ 0.23 to 0.459 µM)
- Clinical symptoms or mortality ([4]; single oral dose 500 and 2000 mg/kg, Swiss albino mice, observed for 14 days): No clinical symptom or mortality was observed
- Pathological changes in organs ([4]; single oral dose 500 and 2000 mg/kg, mice sacrificed on day 15): no pathological changes were seen in any organ
- LD0 ([4]; observed for 14 days): > 2000 mg/kg
- MIC (M. kansasii): 4 µg/mL (≈ 7.35 µM)
- Mean Log10 No. of CFU Lung [5, 10]: 2.63
- Mean Log10 No. of CFU Spleen [5, 10]: 2.6
- Mean Log10 no. of reduction Lung ([5]; Table III, 12.5 mg/kg): 1.85
- Mean Log10 no. of reduction Spleen ([5]; Table III, 12.5 mg/kg): 2.03
- Mean Log10 No. of CFU Lung [5, 11]: 2.13
- Mean Log10 No. of CFU Spleen [5, 11]: 2.07
- Mean Log10 no. of reduction Lung ([5]; Table III, 25 mg/kg): 2.35
- Mean Log10 no. of reduction Spleen ([5]; Table III, 25 mg/kg): 2.29
- Mean Log10 No. of CFU Lung [5, 12]: 1.97
- Mean Log10 No. of CFU Spleen [5, 12]: 1.94
- Mean Log10 no. of reduction Lung ([5]; Table III, 50 mg/kg): 2.51
- Mean Log10 no. of reduction Spleen ([5]; Table III, 50 mg/kg): 2.64
- MIC [6]: 4 to 8 µg/mL (≈ 7.35 to 14.7 µM)

SMILES: COc1ccccc1N1CCN(Cc2cc(C)n(-c3ccc(F)cc3F)c2-c2ccccc2)CC1 [compound 56, 1-{[1-(2,4-difluorophenyl)-5-methyl-2-phenylpyrrol-3-yl]methyl}-4-(2-methoxyphenyl) piperazine]
- MIC (M. tuberculosis 27294): 8 µg/mL (≈ 16.9 µM)
- Growth inhibition of M. tuberculosis 27294 [2]: +
- melting point: 60 to 62 °C
- MIC [3, 9]: 8 µg/mL (≈ 16.9 µM)

SMILES: Cc1c(CN2CCN(c3ncccn3)CC2)cc(-c2ccc(Cl)cc2)n1-c1ccc(Cl)cc1 [compound 5, 1-{[1,5-bis(4-chlorophenyl)-2-methylpyrrol-3-yl]methyl}-4-(2-pyrimidyl) piperazine]
- MIC (M. tuberculosis 27294): 0.25 µg/mL (≈ 0.523 µM)
- MIC (M. fortuitum): 8 to 16 µg/mL (≈ 16.7 to 33.4 µM)
- Growth inhibition of M. tuberculosis 27294 [2]: +
- melting point: 184 to 186 °C
- MIC [3, 8]: 0.5 to 1 µg/mL (≈ 1.05 to 2.09 µM)
- MIC [3, 9]: 0.5 to 1 µg/mL (≈ 1.05 to 2.09 µM)
- MIC (M. kansasii): 8 µg/mL (≈ 16.7 µM)
- MIC [6]: 4 to 8 µg/mL (≈ 8.36 to 16.7 µM)

SMILES: Cc1cc(CN2CCN(C(c3ccccc3)c3ccccc3)CC2)c(-c2ccc(Cl)cc2)n1-c1ccc(F)cc1F
- melting point: 76 to 78 °C

SMILES: COc1ccccc1N1CCN(Cc2cc(-c3ccc(Cl)cc3)n(-c3ccc(Cl)cc3)c2C)CC1 [Compound No. 2, 1-{[1,5-bis(4-chlorophenyl)-2-methylpyrrol-3-yl]methyl}-4-(2-methoxyphenyl) piperazine]
- MIC (M. tuberculosis 27294): 0.25 µg/mL (≈ 0.494 µM)
- MIC (M. fortuitum): 8 to 16 µg/mL (≈ 15.8 to 31.6 µM)
- Growth inhibition of M. tuberculosis 27294 [2]: +
- MIC [3, 8]: 0.125 to 0.25 µg/mL (≈ 0.247 to 0.494 µM)
- MIC [3, 9]: 0.125 to 0.25 µg/mL (≈ 0.247 to 0.494 µM)
- MIC (M. kansasii): 8 µg/mL (≈ 15.8 µM)
- MIC [6]: 4 to 8 µg/mL (≈ 7.9 to 15.8 µM)

SMILES: Cc1c(CN2CCN(c3ccccn3)CC2)cc(-c2ccccc2)n1-c1ccc(F)cc1F [compound 54, 1-{[1-(2,4-difluorophenyl)-2-methyl-5-phenylpyrrol-3-yl]methyl}-4-(2-pyridyl) piperazine]
- MIC (M. tuberculosis 27294): 2 µg/mL (≈ 4.5 µM)
- Growth inhibition of M. tuberculosis 27294 [2]: +
- melting point: 144 to 146 °C
- MIC [3, 9]: 4 µg/mL (≈ 9 µM)

SMILES: Cc1c(CN2CC[S+]([O-])CC2)cc(-c2ccccc2)n1-c1ccccc1 [compound 87, 4-[(2-methyl-1,5-diphenylpyrrol-3-yl)methyl]1,4-thiazaperhydroin-1-one]
- MIC (μg/ml) against M. tuberculosis-27294 (M. tuberculosis 27294): 8.0 µg/mL (≈ 21.9 µM)
- Growth inhibition of M. tuberculosis 27294 [2]: +
- MIC (μg/ml) against Clinical isolates Sensitive [3]: 8.0 to 16.0 µg/mL

SMILES: Cc1c(CN2CCN(c3cccc(C(F)(F)F)c3)CC2)cc(-c2ccccc2)n1NC(=O)c1cnccn1 [compound 27, N-(3-{[4-(3-trifluoromethylphenyl)piperazinyl]methyl}-2-methyl-5-phenylpyrrolyl)pyrazin-2-ylcarboxamide]
- MIC (μg/ml) against M. tuberculosis-27294 (M. tuberculosis 27294): 2.0 µg/mL (≈ 3.84 µM)
- Growth inhibition of M. tuberculosis 27294 [2]: +
- MIC (μg/ml) against Clinical isolates Sensitive [3]: 1.0 to 4.0 µg/mL

SMILES: Cc1cc(CN2CCN(c3ccc(F)cc3)CC2)c(-c2ccccc2)n1NC(=O)c1ccncc1 [compound 22, N-(3-{[4-(4-fluorophenyl)piperazinyl]methyl}-5-methyl-2-phenylpyrrolyl)-4-pyridylcarboxamide]
- MIC (μg/ml) against M. tuberculosis-27294 (M. tuberculosis 27294): 2.0 µg/mL (≈ 4.26 µM)
- Growth inhibition of M. tuberculosis 27294 [2]: +
- MIC (μg/ml) against Clinical isolates Sensitive [3]: 2.0 to 4.0 µg/mL

SMILES: CCC(CO)n1c(-c2ccccc2)cc(CN2CCSCC2)c1C (stereo not shown) [compound 91, 2-[2-methyl-5-phenyl-3-(1,4-thiazaperhydroin-4-ylmethyl)pyrrolyl]butan-1-ol]
- MIC (μg/ml) against M. tuberculosis-27294 (M. tuberculosis 27294): 4.0 µg/mL (≈ 11.6 µM)
- Growth inhibition of M. tuberculosis 27294 [2]: +
- MIC (μg/ml) against Clinical isolates Sensitive [3]: 4.0 to 8.0 µg/mL

SMILES: Cc1c(CN2CCN(C(c3ccccc3)c3ccccc3)CC2)cc(-c2ccccc2)n1NC(=O)c1cnccn1 [compound 30, N-(3-{[4-(diphenylmethyl)piperazinyl]methyl}-2-methyl-5-phenylpyrrolyl)-pyrazin-2-ylcarboxamide]
- MIC (μg/ml) against M. tuberculosis-27294 (M. tuberculosis 27294): 2.0 µg/mL (≈ 3.69 µM)
- Growth inhibition of M. tuberculosis 27294 [2]: +
- MIC (μg/ml) against Clinical isolates Sensitive [3]: 2.0 to 4.0 µg/mL

SMILES: Cc1c(CN2CCN(c3cccc(C(F)(F)F)c3)CC2)cc(-c2ccccc2)n1NC(=O)c1ccncc1 [Compound No. 12, N-(3-{[4-(3-trifluoromethylphenyl)piperazinyl]methyl}-2-methyl-5-phenylpyrrolyl)-4-pyridylcarboxamide]
- MIC (μg/ml) against M. tuberculosis-27294 (M. tuberculosis 27294): 0.25 µg/mL (≈ 0.481 µM)
- Mean Log10 No. of CFU Lung ([7]; 12.5 mg/kg): 4.18 ± 0.38
- Mean Log10 No. of CFU Spleen ([7]; 12.5 mg/kg): 4.41 ± 0.26
- Mean Log10 no. of reduction Lung ([7]; 12.5 mg/kg): 1.41
- Mean Log10 no. of reduction Spleen ([7]; 12.5 mg/kg): 1.54
- Mean Log10 No. of CFU Lung ([7]; 25 mg/kg): 2.87 ± 0.15
- Mean Log10 No. of CFU Spleen ([7]; 25 mg/kg): 2.83 ± 0.29
- Mean Log10 no. of reduction Lung ([7]; 25 mg/kg): 2.72
- Mean Log10 no. of reduction Spleen ([7]; 25 mg/kg): 3.12
- Mean Log10 No. of CFU Lung ([7]; 50 mg/kg): 2.74 ± 0.36
- Mean Log10 No. of CFU Spleen ([7]; 50 mg/kg): 2.78 ± 0.32
- Mean Log10 no. of reduction Lung ([7]; 50 mg/kg): 2.85
- Mean Log10 no. of reduction Spleen ([7]; 50 mg/kg): 3.17
- Growth inhibition of M. tuberculosis 27294 [2]: +
- MIC (μg/ml) against Clinical isolates Sensitive [3]: 0.25 to 0.5 µg/mL
- LD0 ([4]; observed for 14 days): > 500 mg/kg
- Mean Log10 No. of CFU Lung [5, 13]: 2.34 ± 0.18
- Mean Log10 No. of CFU Spleen [5, 13]: 2.26 ± 0.21
- Mean Log10 No. of reduction Lung ([5]; Table VI, 12.5 mg/kg): 2.23
- Mean Log10 No. of reduction Spleen ([5]; Table VI, 12.5 mg/kg): 2.43
- Mean Log10 No. of CFU Lung [5, 14]: 2.1 ± 0.24
- Mean Log10 No. of CFU Spleen [5, 14]: 2.13 ± 0.28
- Mean Log10 No. of reduction Lung ([5]; Table VI, 25 mg/kg): 2.47
- Mean Log10 No. of reduction Spleen ([5]; Table VI, 25 mg/kg): 2.56
- Mean Log10 No. of CFU Lung [5, 15]: 1.89 ± 0.24
- Mean Log10 No. of CFU Spleen [5, 15]: 1.94 ± 0.23
- Mean Log10 No. of reduction Lung ([5]; Table VI, 50 mg/kg): 2.68
- Mean Log10 No. of reduction Spleen ([5]; Table VI, 50 mg/kg): 2.75

From US7763602B2, “Pyrrole derivatives as antimycobacterial compounds” (priority 2002, dated 2010)
